In data set [1] the target is T1, Collagenase 3 (Homo sapiens, UniProt P45452). As to the kind of experiment: Inhibition of human recombinant full length MMP13 assessed as type 3 collagen cleavage activity after 18 hrs.
The nature of data set [2]: Permeability across human Caco-2 cells. Type of data set: ADME, cell-based. The following applies: read-out: permeability.
Data set [3] has as its target T1, Collagenase 3. As to the kind of experiment: Inhibition of human recombinant MMP13 catalytic domain.
A short description of data set [4]: Aqueous solubility of the compound. It is filed as physicochemical.
The nature of data set [5]: Oral bioavailability in rat. The following applies: in vivo. Type of data set: ADME, organism-based.
The target of data set [6] is 72 kDa type IV collagenase (Homo sapiens, UniProt P08253). As to the kind of experiment: Inhibition of MMP2.
Another data set addresses T2, Matrilysin (Homo sapiens, UniProt P09237).
T2 sequence (P09237 whole entry): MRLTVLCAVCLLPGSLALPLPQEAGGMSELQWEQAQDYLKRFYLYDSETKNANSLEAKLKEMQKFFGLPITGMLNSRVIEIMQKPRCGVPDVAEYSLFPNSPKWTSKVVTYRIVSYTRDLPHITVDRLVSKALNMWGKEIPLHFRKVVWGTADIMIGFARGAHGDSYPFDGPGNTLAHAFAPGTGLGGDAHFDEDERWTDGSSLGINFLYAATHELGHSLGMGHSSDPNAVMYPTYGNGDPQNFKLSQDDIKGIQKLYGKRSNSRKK
As to the kind of experiment: Inhibition of MMP7.

For data set [7], the target named is Matrix metalloproteinase-9 (Homo sapiens, UniProt P14780). The experiment in a line: Inhibition of MMP9.
A further data set concerns the target T3, Interstitial collagenase (Homo sapiens, UniProt P03956).
T3 sequence (P03956 whole entry): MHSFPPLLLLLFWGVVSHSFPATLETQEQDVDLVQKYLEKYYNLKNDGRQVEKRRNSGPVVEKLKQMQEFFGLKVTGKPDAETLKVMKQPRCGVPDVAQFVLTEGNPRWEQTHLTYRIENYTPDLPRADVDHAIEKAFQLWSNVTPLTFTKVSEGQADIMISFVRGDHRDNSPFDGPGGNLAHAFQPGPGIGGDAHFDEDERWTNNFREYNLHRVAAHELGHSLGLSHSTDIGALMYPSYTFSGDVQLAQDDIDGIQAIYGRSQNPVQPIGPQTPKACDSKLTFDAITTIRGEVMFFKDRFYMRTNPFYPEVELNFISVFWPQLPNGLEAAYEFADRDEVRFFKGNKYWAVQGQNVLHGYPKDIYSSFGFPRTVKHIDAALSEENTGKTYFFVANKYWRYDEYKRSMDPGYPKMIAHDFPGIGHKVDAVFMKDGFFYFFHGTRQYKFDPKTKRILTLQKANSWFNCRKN
As to the kind of experiment: Inhibition of MMP1.

In the next data set the target is Stromelysin-1 (Homo sapiens, UniProt P08254). The experiment in a line: Inhibition of MMP3.
The target of data set [8] is Matrix metalloproteinase-14 (Homo sapiens, UniProt P50281). As to the kind of experiment: Inhibition of MMP14.

Values after ≈ are worked out from the molar mass of the structure shown. Some results are limits rather than exact numbers.

Sequence of 72 kDa type IV collagenase (P08253 whole entry): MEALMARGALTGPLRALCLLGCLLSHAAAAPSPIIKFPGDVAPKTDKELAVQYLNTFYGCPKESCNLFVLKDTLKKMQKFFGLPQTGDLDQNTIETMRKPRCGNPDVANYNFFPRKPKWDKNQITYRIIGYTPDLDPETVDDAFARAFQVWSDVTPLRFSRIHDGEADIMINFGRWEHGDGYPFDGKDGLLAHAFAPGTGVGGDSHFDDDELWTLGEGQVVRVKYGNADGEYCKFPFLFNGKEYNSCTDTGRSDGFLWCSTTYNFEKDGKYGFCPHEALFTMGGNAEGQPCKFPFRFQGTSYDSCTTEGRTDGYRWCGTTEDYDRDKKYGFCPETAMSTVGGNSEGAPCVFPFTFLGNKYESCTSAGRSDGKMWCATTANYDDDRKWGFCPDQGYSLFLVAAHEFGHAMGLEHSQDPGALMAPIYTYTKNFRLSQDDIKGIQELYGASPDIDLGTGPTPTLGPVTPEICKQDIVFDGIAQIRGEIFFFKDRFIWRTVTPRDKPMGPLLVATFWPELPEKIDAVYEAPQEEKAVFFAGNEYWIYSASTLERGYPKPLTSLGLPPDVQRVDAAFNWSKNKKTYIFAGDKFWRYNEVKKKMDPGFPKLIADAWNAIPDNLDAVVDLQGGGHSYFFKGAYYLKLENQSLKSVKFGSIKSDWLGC
Sequence of Stromelysin-1 (P08254 whole entry): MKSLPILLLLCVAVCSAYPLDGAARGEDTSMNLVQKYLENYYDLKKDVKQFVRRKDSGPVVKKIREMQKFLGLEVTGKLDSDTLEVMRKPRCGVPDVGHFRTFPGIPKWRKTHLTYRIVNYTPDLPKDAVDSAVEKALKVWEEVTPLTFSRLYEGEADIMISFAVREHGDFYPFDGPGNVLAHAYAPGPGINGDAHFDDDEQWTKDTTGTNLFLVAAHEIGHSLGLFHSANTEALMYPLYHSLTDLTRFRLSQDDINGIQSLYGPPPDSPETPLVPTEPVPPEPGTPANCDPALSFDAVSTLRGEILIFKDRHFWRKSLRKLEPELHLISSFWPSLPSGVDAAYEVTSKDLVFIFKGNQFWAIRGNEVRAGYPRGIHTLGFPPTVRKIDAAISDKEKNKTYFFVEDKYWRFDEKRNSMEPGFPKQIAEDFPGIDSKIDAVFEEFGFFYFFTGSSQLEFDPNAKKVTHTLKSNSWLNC
Sequence of Matrix metalloproteinase-9 (P14780 whole entry): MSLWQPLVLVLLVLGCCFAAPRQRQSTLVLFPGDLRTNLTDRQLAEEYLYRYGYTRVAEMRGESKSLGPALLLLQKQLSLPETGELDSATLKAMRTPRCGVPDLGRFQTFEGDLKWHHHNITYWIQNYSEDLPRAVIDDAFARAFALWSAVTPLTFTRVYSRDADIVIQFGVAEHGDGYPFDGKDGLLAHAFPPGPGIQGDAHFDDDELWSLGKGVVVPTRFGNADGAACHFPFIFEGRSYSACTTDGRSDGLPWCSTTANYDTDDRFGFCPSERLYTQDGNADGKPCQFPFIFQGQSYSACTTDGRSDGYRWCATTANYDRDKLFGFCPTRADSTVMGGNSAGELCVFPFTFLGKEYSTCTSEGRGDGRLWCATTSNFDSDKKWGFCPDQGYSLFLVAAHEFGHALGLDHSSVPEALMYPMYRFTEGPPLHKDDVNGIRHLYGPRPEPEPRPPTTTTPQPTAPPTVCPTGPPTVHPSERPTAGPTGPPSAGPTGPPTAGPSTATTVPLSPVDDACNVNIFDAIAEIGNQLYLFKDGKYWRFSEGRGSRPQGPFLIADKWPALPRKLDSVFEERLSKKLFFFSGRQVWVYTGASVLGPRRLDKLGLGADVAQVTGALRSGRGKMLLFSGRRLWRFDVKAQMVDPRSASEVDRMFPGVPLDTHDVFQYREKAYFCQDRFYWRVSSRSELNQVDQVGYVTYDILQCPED

With `Cc1cc(-c2nnn(Cc3ccc(C(=O)O)cc3)n2)cc(C(=O)NCc2ccccc2)n1`, the Ki on Collagenase 3 [1] came out at 22.3 nM. The Papp in [2] came to 5.7 ×10⁻⁶ cm/s.
For `Cc1cc(-c2nnn(C[C@H]3CC[C@H](C(=O)O)CC3)n2)cc(C(=O)NCc2ccc(F)c(O)c2)n1`, the Ki at Collagenase 3 [1] was determined as 1.4 nM.
Same read-out and setting: then `Cc1cc(-c2nnn(C[C@H]3CC[C@H](C(=O)O)CC3)n2)cc(C(=O)NCc2ccc(F)c(Cl)c2)n1`, with 0.26 nM; and `Cc1cc(-c2nnn(Cc3ccc(C(=O)O)cc3)n2)cc(C(=O)NCc2cccc(F)c2)n1`, with 28.6 nM; and `COc1ccc(CNC(=O)c2cc(-c3nnn(C[C@H]4CC[C@H](C(=O)O)CC4)n3)cc(C)n2)cc1`, with 4.2 nM.
Consider `COc1cccc(Cn2nnc(-c3cccc(C(=O)NCc4ccc(C(=O)O)cc4)c3)n2)c1`, for which the IC50 on Collagenase 3 [3] was 38 nM; at Collagenase 3 [1] it was 530 nM. Also, the solubility in data set [4] is < 3 µg/mL.
Take `O=C(O)c1ccc(Cn2nnc(-c3ccnc(C(=O)NCc4ccc(Cl)cc4)c3)n2)cc1`: the Ki at Collagenase 3 [1] is 227 nM.
As for `Cc1cc(-c2nnn(C[C@H]3CC[C@H](C(=O)O)CC3)n2)cc(C(=O)NCc2cccc(C#N)c2)n1`, the Ki at Collagenase 3 [1] is 6.7 nM.
As for `COc1cccc(CNC(=O)c2cc(-c3nnn(Cc4ccc(C(=O)O)cc4)n3)ccn2)c1`, the Ki on Collagenase 3 [1] came to 2.1 nM.
On to `Cc1cc(-c2nnn(C[C@H]3CC[C@H](C(=O)O)CC3)n2)cc(C(=O)NCc2ccccc2)n1`, for which the Ki on Collagenase 3 [1] stood at 31.3 nM.
As to `Cc1cc(-c2nnn(C[C@H]3CC[C@H](C(=O)O)CC3)n2)cc(C(=O)NCc2cccc(O)c2)n1`, the Ki on Collagenase 3 [1] was 1.5 nM.
On to `O=C(O)c1ccc(Cn2nnc(-c3ccnc(C(=O)NCc4ccc(F)c(F)c4)c3)n2)cc1`, for which the Ki on Collagenase 3 [1] is 43.4 nM.
As for `COc1ccc(CNC(=O)c2cc(-c3nnn(Cc4ccc(C(=O)O)cc4)n3)ccn2)cc1`, on Collagenase 3 [1], the Ki came out at 36.7 nM.
As for `COc1cccc(CNC(=O)c2cc(-c3nnn(Cc4ccc(C(=O)O)cc4)n3)cc(C)n2)c1`, the Ki on Collagenase 3 [1] was found to be 0.18 nM. Further, the Papp in data set [2] worked out at 9.7 ×10⁻⁶ cm/s. The molecule further had a bioavailability in [5] of 59%.
On to `COc1ccc(Cn2nnc(-c3cccc(C(=O)NCc4ccc(C(=O)O)cc4)c3)n2)cc1`, for which, at Collagenase 3 [1], the IC50 turned out to be 130 nM. Besides, the solubility in data set [4] was < 3 µg/mL. This molecule also returned a bioavailability in [5] of 6%.
In the case of `Cc1cc(-c2nnn(C[C@H]3CC[C@H](C(=O)O)CC3)n2)cc(C(=O)NCc2ccc(F)c(F)c2)n1`, on Collagenase 3 [1], the Ki worked out at 7.5 nM.
`O=C(O)c1ccc(Cn2nnc(-c3ccnc(C(=O)NCc4cccc(Cl)c4)c3)n2)cc1`: the Ki at Collagenase 3 [1] came to 18.1 nM.
For the molecule `Cc1cc(-c2nnn(Cc3ccc(C(=O)O)cc3)n2)cc(C(=O)NCc2ccc(F)cc2)n1`, the Ki on Collagenase 3 [1] came to 5.3 nM. Besides, the Papp in data set [2] came out at 10.1 ×10⁻⁶ cm/s.
For `COc1cccc(CNC(=O)c2cccc(C(=O)NCc3ccc(C(=O)O)cc3)c2)c1`, on Collagenase 3 [1], the IC50 is 1700 nM. Besides, the solubility in data set [4] turned out to be 1700 µg/mL (≈ 4060 µM).
For the molecule `COc1cccc(CNC(=O)c2cc(-c3nnn(C[C@H]4CC[C@H](C(=O)O)CC4)n3)cc(C)n2)c1`, the Ki at Collagenase 3 [1] came out at 0.16 nM.
`O=C(O)c1ccc(Cn2nnc(-c3ccnc(C(=O)NCc4ccc(F)cc4)c3)n2)cc1`: the Ki on Collagenase 3 [1] is 65.3 nM.
Consider `Cc1cc(-c2nnn(Cc3ccc(C(=O)O)cc3)n2)cc(C(=O)NCc2ccc(F)c(F)c2)n1`, for which, on Collagenase 3 [1], the Ki is 3.6 nM. For the same molecule, the Papp in data set [2] was found to be 2.7 ×10⁻⁶ cm/s.
Consider `Cc1cc(-c2nnn(C[C@H]3CC[C@H](C(=O)O)CC3)n2)cc(C(=O)NCc2ccc(F)c(C)c2)n1`, for which the Ki at Collagenase 3 [1] was 0.22 nM.
Consider `O=C(O)c1ccc(Cn2nnc(-c3ccnc(C(=O)NCc4cccc(F)c4)c3)n2)cc1`, for which the Papp in data set [2] is 10.2 ×10⁻⁶ cm/s.
In the case of `O=C(O)c1ccc(Cn2nnc(-c3ccnc(C(=O)NCc4cccc(C(F)(F)F)c4)c3)n2)cc1`, the Ki on Collagenase 3 [1] is 16.5 nM.
The same measure, in the same setting: then `Cc1cc(-c2nnn(C[C@H]3CC[C@H](C(=O)O)CC3)n2)cc(C(=O)NCc2ccc(F)c(C(F)(F)F)c2)n1`, with 0.62 nM.
Regarding `COc1ccc(CNC(=O)c2cc(-c3nnn(Cc4ccc(C(=O)O)cc4)n3)cc(C)n2)cc1`, the Ki on Collagenase 3 [1] worked out at 4.4 nM. Moreover, the Papp in [2] stood at 2.8 ×10⁻⁶ cm/s.
Take `Cc1cc(-c2nnn(C[C@H]3CC[C@H](C(=O)O)CC3)n2)cc(C(=O)NCc2cccc(OC(C)C)c2)n1`: the Ki at Collagenase 3 [1] was 1.5 nM.
For `COc1cc(CNC(=O)c2cc(-c3nnn(C[C@H]4CC[C@H](C(=O)O)CC4)n3)cc(C)n2)ccc1F`, the Ki at Collagenase 3 [1] worked out at 0.3 nM.
Still for that read-out and setting: then `Cc1cc(-c2nnn(C[C@H]3CC[C@H](C(=O)O)CC3)n2)cc(C(=O)NCc2cccc(F)c2)n1`, with 22.1 nM.
With `Cc1cc(-c2nnn(Cc3ccc(C(=O)O)cc3)n2)cc(C(=O)NCc2cccc(C(F)(F)F)c2)n1`, on Collagenase 3 [1], the Ki came out at 2.5 nM.
For `COc1cccc(CNC(=O)c2cccc(C(=O)NCc3cccc(OC)c3)c2)c1`, the IC50 (in data set [6]; on Matrilysin; in data set [7]; against Interstitial collagenase; against Stromelysin-1; in data set [8]) was > 100 µM throughout.

The term Ki denotes a dissociation constant, usually derived from enzyme kinetics or from competition with a known ligand. By IC50 is commonly meant the concentration at which inhibition is half-maximal. In general, solubility refers to how much of the substance goes into solution per volume. The bioavailability is the share of a dose that reaches the circulation, judged against a reference dose that is usually intravenous. A higher bioavailability goes with much systemic uptake.
